Experimental data published in ChEMBL document CHEMBL5465560, “Selectivity Literature for EUbOPEN Chemogenomic Library” (2024).
Blank lines part the entries; values can stand above or below the compound they belong to.

Experiments:
[1] = target: T1, Mitogen-activated protein kinase 15 (Homo sapiens) (UniProt Q8TD08); assay: Selectivity interaction (LanthaScreen Eu Kinase Binding Assay) EUB0001632a MAPK15; details: at 10 µM
T1 sequence (whole entry): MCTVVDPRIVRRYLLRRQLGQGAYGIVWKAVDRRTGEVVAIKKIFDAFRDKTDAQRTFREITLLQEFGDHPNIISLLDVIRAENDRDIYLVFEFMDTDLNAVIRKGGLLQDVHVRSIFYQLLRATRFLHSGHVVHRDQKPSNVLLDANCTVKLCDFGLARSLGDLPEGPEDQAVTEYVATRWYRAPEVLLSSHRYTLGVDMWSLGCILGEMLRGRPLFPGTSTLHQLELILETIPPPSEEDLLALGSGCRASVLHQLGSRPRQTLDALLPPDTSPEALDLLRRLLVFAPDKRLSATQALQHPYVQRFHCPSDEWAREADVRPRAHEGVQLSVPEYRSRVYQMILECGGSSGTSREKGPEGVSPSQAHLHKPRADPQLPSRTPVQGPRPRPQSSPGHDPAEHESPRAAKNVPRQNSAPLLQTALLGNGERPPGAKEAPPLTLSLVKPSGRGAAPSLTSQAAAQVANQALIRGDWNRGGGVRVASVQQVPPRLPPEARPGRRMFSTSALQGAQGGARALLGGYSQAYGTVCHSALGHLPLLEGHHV

[2] = target: T2, Histone-arginine methyltransferase CARM1 (Homo sapiens) (UniProt Q86X55); assay: Selectivity interaction (Methyltransferase screen (radiometric assays, panel of 8 PRMTs, 21 protein lysine methyltransferases, 3 DNA methyltransferases, and one RNA methyltransferase)) EUB0000272b CARM1
T2 sequence (whole entry): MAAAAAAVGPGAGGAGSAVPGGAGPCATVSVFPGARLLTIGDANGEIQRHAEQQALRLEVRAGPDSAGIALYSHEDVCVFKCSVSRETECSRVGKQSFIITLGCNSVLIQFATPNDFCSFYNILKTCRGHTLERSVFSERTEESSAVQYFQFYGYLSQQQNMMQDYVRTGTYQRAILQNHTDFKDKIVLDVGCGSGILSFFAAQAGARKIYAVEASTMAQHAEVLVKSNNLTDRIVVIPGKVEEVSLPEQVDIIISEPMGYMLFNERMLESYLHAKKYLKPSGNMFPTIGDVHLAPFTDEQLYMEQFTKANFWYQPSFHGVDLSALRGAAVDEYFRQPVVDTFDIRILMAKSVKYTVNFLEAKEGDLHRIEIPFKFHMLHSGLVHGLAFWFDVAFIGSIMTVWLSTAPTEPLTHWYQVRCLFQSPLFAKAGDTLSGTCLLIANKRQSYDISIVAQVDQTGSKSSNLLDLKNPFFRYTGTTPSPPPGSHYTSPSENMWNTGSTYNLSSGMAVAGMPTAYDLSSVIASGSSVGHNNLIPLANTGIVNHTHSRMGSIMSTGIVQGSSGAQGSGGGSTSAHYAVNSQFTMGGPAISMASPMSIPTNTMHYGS

[3] = target: Dual specificity mitogen-activated protein kinase kinase 1 (Homo sapiens, UniProt Q02750); assay: Selectivity interaction (Kinase panel (Invitrogen)) EUB0000639a MAP2K1; details: at 200 nM
[4] = target: Proto-oncogene tyrosine-protein kinase receptor Ret (Homo sapiens, UniProt P07949); assay: Selectivity interaction (Kinase panel (Invitrogen)) EUB0000639a RET; details: at 200 nM
[5] = target: Ribosomal protein S6 kinase alpha-4 (Homo sapiens) (UniProt O75676); assay: Selectivity interaction (KinomeScan (DiscoverX)) EUB0000595a RPS6KA4; details: at 10 µM
[6] = target: T3, Serine/threonine-protein kinase DCLK1 (Homo sapiens) (UniProt O15075); assay: Selectivity interaction (KinomeScan (DiscoverX)) EUB0000595a DCLK1; details: at 10 µM
T3 sequence (whole entry): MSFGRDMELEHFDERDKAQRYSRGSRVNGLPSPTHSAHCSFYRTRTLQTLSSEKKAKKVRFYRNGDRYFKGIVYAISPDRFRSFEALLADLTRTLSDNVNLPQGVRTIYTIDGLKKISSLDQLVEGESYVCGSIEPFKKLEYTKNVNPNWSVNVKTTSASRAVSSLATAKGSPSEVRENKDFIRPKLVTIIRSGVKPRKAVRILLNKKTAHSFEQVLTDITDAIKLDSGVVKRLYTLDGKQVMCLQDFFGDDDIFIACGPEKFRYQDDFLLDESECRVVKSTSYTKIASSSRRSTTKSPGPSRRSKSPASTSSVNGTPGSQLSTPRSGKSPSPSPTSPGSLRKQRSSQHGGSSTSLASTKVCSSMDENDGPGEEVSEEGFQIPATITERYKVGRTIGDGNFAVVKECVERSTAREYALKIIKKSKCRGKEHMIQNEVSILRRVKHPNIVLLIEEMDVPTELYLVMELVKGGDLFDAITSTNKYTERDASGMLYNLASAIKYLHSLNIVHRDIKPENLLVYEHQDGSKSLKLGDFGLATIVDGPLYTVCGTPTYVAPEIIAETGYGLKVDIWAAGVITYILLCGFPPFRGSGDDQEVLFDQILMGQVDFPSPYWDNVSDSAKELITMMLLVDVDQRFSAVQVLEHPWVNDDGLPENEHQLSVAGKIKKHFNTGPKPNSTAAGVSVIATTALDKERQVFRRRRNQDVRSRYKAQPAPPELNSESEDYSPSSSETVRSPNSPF

[7] = target: Ribosomal protein S6 kinase alpha-1 (Homo sapiens, UniProt Q15418); assay: Selectivity interaction (KinomeScan (DiscoverX)) EUB0000045b RPS6KA1; details: at 1 µM
[8] = target: Cyclin-dependent kinase 5 (Homo sapiens, UniProt Q00535); assay: Selectivity interaction (KinomeScan (DiscoverX)) EUB0000092b CDK5; details: at 10 µM
Cyclin-dependent kinase 5, sequence (Q00535 whole entry, looked up): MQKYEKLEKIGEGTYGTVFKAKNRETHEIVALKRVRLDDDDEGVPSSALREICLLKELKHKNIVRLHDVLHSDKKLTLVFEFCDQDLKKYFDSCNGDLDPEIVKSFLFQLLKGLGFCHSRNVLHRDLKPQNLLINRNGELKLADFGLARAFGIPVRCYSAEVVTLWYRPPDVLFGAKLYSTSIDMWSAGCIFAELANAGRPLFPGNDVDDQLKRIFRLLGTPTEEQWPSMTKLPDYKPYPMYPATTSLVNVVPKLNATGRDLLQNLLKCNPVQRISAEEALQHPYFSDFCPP

Proto-oncogene tyrosine-protein kinase receptor Ret, sequence (P07949 whole entry): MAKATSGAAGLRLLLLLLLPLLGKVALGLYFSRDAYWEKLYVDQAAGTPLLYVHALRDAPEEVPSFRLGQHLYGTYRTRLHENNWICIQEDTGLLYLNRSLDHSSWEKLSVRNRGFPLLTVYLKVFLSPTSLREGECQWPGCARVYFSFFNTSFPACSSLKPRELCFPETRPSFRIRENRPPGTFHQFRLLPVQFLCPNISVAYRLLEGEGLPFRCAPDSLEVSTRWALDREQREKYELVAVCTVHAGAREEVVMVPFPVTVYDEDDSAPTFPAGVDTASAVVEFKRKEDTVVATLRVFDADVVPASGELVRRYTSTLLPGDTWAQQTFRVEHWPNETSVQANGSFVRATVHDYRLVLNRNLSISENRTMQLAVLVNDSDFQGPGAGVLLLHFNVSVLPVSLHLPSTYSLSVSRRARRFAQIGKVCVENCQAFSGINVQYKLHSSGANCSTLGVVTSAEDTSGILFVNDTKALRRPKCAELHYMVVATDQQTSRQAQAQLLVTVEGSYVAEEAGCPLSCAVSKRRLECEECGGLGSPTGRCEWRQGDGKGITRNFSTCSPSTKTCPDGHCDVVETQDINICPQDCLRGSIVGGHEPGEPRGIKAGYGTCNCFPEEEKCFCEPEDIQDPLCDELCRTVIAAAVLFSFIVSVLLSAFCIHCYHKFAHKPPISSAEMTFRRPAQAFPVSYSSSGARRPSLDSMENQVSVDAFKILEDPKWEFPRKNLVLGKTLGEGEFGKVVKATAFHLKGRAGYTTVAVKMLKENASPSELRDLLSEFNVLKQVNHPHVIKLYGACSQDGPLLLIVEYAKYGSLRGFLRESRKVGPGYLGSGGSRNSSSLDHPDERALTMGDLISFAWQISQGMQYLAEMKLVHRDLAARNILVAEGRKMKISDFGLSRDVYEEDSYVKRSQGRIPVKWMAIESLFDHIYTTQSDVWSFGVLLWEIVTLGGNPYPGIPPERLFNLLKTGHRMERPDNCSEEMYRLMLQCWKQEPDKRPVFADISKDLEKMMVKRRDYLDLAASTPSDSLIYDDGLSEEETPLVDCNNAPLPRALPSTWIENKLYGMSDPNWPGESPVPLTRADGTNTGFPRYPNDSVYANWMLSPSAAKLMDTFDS
Ribosomal protein S6 kinase alpha-1, sequence (Q15418 whole entry): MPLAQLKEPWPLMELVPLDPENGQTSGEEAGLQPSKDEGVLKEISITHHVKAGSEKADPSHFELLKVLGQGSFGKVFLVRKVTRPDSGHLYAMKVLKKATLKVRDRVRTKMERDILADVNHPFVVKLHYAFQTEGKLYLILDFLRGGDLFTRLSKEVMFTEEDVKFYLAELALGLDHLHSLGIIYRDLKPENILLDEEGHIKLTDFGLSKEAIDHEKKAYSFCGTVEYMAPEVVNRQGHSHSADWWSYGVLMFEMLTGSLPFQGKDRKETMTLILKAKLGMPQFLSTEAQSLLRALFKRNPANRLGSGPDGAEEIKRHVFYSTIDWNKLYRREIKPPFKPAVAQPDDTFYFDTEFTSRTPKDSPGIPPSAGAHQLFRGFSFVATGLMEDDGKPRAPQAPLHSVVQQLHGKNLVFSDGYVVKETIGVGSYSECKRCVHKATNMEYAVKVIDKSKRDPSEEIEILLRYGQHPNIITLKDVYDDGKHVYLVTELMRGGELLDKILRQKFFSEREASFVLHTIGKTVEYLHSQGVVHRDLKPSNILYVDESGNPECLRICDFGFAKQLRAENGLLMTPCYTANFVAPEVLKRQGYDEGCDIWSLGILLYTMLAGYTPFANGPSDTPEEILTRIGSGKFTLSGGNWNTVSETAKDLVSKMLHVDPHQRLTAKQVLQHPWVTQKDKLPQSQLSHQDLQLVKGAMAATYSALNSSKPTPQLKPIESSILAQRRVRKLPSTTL
Dual specificity mitogen-activated protein kinase kinase 1, sequence (Q02750 whole entry): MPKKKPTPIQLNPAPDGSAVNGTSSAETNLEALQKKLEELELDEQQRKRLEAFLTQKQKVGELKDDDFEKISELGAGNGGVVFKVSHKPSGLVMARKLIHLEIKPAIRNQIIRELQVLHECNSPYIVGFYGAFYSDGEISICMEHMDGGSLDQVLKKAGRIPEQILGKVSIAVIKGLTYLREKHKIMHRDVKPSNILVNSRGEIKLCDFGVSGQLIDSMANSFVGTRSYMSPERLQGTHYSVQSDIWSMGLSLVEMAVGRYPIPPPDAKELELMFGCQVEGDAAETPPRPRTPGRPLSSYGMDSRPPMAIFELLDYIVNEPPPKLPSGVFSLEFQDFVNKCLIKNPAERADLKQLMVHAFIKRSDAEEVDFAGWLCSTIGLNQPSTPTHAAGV
Ribosomal protein S6 kinase alpha-4 (Homo sapiens), sequence (O75676 whole entry, looked up): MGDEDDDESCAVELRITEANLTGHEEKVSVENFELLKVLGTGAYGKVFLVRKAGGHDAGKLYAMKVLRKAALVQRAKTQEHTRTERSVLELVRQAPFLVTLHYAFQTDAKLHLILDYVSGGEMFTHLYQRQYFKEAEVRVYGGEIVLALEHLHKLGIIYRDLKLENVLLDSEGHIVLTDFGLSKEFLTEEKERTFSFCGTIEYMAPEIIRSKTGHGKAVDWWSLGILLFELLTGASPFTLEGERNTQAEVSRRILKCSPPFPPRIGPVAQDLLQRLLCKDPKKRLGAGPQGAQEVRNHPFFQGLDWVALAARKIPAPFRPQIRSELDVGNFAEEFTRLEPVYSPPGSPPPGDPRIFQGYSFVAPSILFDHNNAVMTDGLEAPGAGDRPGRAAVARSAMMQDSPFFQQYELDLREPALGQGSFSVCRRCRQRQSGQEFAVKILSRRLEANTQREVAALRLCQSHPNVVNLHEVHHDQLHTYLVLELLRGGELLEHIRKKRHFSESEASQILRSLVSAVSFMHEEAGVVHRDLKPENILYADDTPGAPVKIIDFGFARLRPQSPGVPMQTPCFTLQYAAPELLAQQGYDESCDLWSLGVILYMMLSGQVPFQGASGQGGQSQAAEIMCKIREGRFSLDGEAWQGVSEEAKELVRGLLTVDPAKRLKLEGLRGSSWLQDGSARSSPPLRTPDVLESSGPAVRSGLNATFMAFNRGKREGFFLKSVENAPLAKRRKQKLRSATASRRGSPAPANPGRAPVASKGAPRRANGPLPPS

Structure (SMILES): Cn1cc(-n2cnc3c(NCc4nc5cc(Cl)c(Cl)cc5[nH]4)nc(N4CCOCC4)nc32)cn1
% of inhibition [1]: -42.8%

% of activity ([2]; at 1 µM): 102% | % of activity ([2]; at 10 µM): 96.7%
Structure (SMILES): Cc1cc(C)cc([C@H]2c3cc(C)ccc3NC(=O)CN2C(=O)c2ccc(Br)s2)c1

% of inhibition [3]: 20.4% | % of inhibition [4]: 58.6%
Structure (SMILES): CC[C@@H]1[C@H](F)C(=O)N[C@@H]1COc1nccc2cc(C(N)=O)c(OC)cc12 [ZIMLOVISERTIB]

Structure (SMILES): COCC(=O)NC/C=C/c1ccc2ncnc(Nc3ccc(Oc4ccc(C)nc4)c(C)c3)c2c1 [CP-724714]
% of control [5]: 100% | % of control [6]: 100%

Structure (SMILES): C=CC(=O)Nc1cc(-n2c(=O)ccc3cnc4ccc(-c5ccc(NS(C)(=O)=O)cc5)cc4c32)ccc1C
% of control [7]: 91%

Structure (SMILES): CCC(=O)N1CCN(c2ccc(-n3c(=O)ccc4cnc5ccc(-c6cnc7ccccc7c6)cc5c43)cc2C(F)(F)F)CC1
% of control [8]: 100%
